Measured values: US20230312528A1, “2-OXO-IMIDAZOLIDINE-4-CARBOXAMIDES AS NAV1.8 INHIBITORS” (Merck Sharp & Dohme LLC, priority 2020, published 2023)

Target: human NaV1.8 (Homo sapiens (Human), UniProt Q9Y5Y9)
Assay: Nav1.8 Qube automated patch-clamp assay
Type: cell-based
Conditions: human NaV1.8 stably expressed in HEK 293 cells; automated 384-well patch-clamp; resting or inactivated state not specified
Description: Compounds were tested on human NaV1.8 and NaV1.5 channels stably expressed in human embryo kidney (HEK) 293 cells. Sodium current measurements on Qube® were conducted as follows: automated 384-well patch-clamp assays on the Qube® platform (Sophion Biosciences) were used to measure the inhibition of sodium flow through human NaV1.8 and NaV1.5 channels. Whole-cell voltage-clamp recordings were performed in QChips® (Sophion Biosciences) at room temperature. NaV1.8 current measurements on Qube® were obtained as follows: NaV1.8 currents were elicited with a 10 second 1 Hertz (Hz) pulse train from a holding potential of −90 millivolts (mV), delivered to the cells once per minute in the control condition (DMSO only) and after compound addition. The 1 hertz pulse train stimulation consisted of ten test pulses to 10 millivolt (mV) for 20 milliseconds (ms), each of which was followed by a 980 millisecond repolarization to −67 millivolts. At the end of the 10 second pulse train stimulation, a 5 second hyperpolarization step to −100 millivolt (mV) was used to recover NaV1.8 from fast inactivation. The peak currents elicited by the 1st and 10th test pulses were used to determine IC50 values for resting inhibition and inactivated state inhibition. NaV1.5 current measurements on Qube® were obtained as follows: NaV1.5 currents were elicited with a 20 second 3 Hertz pulse train in the control condition (DMSO only) and after compound addition. The pulse train consisted of sixty 20 millisecond test pulses to 0 millivolt from a holding potential of −80 millivolt (mV). The average peak currents elicited by the last 3 test pulses were used to determine IC50 values for NaV1.5 inhibition.
The following buffers were used for the Qube® recordings: External buffer for NaV1.8 Qube® recording: 150 NaCl, 2 CaCl2, 5 KCl, 1 Mg Cl2, 10 HEPES, 12 Dextrose; External buffer for Qube® NaV1.5 recording: 120 N-Methyl-D-Glucamine, 40 NaCl, 1 KCl, 2.7 CaCl2, 5 HEPES, 0.5 MgCl2; and Internal buffer for Qube® recording: 120 CsF, 30 CsCl, 10 EGTA, 5 HEPES, 5 NaF, 2 MgCl2.
For all Qube® experiments offline analysis was used to determine percent inhibition as a function of drug concentration. IC50 values were determined by fitting to the Hill equation.

Chain of human NaV1.8 (Q9Y5Y9 whole entry): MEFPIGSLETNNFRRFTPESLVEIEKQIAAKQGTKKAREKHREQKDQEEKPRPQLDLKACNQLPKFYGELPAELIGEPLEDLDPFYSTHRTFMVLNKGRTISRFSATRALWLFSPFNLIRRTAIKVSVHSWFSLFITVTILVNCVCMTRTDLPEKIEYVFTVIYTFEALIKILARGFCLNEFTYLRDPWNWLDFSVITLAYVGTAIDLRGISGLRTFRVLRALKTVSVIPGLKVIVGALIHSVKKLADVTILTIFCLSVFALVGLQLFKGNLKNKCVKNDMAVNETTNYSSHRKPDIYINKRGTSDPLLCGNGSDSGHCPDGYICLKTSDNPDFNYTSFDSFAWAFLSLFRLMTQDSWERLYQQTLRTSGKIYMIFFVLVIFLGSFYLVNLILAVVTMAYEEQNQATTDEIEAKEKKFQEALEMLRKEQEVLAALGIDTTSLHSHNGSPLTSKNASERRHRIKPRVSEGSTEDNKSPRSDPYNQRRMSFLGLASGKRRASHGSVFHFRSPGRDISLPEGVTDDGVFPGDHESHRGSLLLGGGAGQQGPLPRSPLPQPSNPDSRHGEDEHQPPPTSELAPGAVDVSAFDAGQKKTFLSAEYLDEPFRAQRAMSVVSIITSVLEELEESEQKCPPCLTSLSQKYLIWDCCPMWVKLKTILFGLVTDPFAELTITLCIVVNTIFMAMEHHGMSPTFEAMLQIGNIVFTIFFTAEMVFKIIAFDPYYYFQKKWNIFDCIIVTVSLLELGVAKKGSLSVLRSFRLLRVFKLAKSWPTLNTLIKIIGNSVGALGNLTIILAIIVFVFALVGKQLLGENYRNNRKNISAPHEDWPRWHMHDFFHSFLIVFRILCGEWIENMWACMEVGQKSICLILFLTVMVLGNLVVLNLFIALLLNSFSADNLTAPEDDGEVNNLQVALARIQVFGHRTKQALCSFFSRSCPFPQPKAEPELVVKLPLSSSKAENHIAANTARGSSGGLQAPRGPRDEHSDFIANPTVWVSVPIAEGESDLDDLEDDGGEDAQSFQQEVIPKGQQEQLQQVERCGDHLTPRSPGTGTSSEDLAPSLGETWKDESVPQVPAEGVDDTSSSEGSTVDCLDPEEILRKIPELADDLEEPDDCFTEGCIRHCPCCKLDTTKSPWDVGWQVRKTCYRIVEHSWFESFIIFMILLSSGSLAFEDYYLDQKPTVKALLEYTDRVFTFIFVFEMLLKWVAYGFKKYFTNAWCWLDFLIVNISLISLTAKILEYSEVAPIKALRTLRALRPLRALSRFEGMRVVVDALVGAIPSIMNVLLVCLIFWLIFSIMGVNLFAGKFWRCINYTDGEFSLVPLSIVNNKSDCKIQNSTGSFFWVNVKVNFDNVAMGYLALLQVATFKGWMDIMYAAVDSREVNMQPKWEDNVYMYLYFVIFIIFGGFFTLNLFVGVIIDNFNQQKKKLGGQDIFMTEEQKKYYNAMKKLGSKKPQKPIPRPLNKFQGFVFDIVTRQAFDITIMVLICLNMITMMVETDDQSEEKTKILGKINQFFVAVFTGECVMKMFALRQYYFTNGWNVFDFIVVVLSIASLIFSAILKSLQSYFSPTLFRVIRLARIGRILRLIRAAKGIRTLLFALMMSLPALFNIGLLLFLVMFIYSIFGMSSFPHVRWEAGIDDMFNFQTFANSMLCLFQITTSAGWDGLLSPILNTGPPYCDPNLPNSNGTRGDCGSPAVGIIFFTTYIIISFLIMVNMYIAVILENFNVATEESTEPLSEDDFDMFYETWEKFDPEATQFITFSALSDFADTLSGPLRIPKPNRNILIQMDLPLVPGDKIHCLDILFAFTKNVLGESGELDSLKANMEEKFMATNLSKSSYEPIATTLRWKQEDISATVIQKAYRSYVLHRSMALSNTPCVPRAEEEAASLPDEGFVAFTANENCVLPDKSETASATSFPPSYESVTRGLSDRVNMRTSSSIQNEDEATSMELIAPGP

Row | IC50 | SMILES
1 | 116 nM | O=C1NC[C@@H](C(=O)NC(c2ccc(C(F)(F)F)nc2)c2csc(C(F)(F)F)n2)N1 (mixture of isomers) [Example 19, (S)-2-oxo-N—((R and S)-(6-(trifluoromethyl)pyridin-3-yl)(2-(trifluoromethyl)thiazol-4-yl)methyl)imidazolidine-4-carboxamide]
2 | 219 nM | O=C1NC[C@@H](C(=O)NC(COc2ccc(C(F)(F)F)nc2)c2ccc(F)c(Cl)c2)N1 (mixture of isomers) [Example 53, (4S)-N-(1-(3-chloro-4-fluorophenyl)-2-((6-(trifluoromethyl)pyridin-3-yl)oxy)ethyl)-2-oxoimidazolidine-4-carboxamide]
3 | 54 nM | O=C1NC[C@@H](C(=O)NC(c2ccc(Cl)cc2)c2ccc3ncsc3c2)N1 (mixture of isomers) [Example 81, (4S)-N-(benzo[d]thiazol-6-yl(4-chlorophenyl)methyl)-2-oxoimidazolidine-4-carboxamide]
4 | 4 nM | O=C1NC[C@@H](C(=O)NC(COc2ccc(F)c(Cl)c2)c2ccc(F)c(Cl)c2)N1 (single isomer, unassigned) [Example 1A, (S)—N—((R or S)-2-(3-chloro-4-fluorophenoxy)-1-(3-chloro-4-fluorophenyl)ethyl)-2-oxoimidazolidine-4-carboxamide]
5 | 22 nM | O=C1NC[C@@H](C(=O)NC(COc2ccc(F)c(Cl)c2)c2ccc(F)c(Cl)c2)N1 (single isomer, unassigned) [Example 1B, (S)—N—((R or S)-2-(3-chloro-4-fluorophenoxy)-1-(3-chloro-4-fluorophenyl)ethyl)-2-oxoimidazolidine-4-carboxamide]
6 | 34 nM | CN1C(=O)NCC1C(=O)NC(c1ccc(Cl)cc1)c1ccc(Cl)cc1 (single isomer, unassigned) [Example 2A, (R or S)—N-(bis(4-chlorophenyl)methyl)-3-methyl-2-oxoimidazolidine-4-carboxamide]
7 | 8100 nM | CN1C(=O)NCC1C(=O)NC(c1ccc(Cl)cc1)c1ccc(Cl)cc1 (single isomer, unassigned) [Example 2B, (R or S)—N-(bis(4-chlorophenyl)methyl)-3-methyl-2-oxoimidazolidine-4-carboxamide]
8 | 9.7 nM | O=C1NC[C@@H](C(=O)NC(c2cnc(C(F)(F)F)c(Cl)c2)c2ccc(Cl)c(C(F)F)n2)N1 (single isomer, unassigned) [Example 3A, (S)—N—((R or S)-(5-chloro-6-(difluoromethyl)pyridin-2-yl)(5-chloro-6-(trifluoromethyl)pyridin-3-yl)methyl)-2-oxoimidazolidine-4-carboxamide]
9 | 2.7 nM | O=C1NC[C@@H](C(=O)NC(c2cnc(C(F)(F)F)c(Cl)c2)c2ccc(Cl)c(C(F)F)n2)N1 (single isomer, unassigned) [Example 3B, (S)—N—((R or S)-(5-chloro-6-(difluoromethyl)pyridin-2-yl)(5-chloro-6-(trifluoromethyl)pyridin-3-yl)methyl)-2-oxoimidazolidine-4-carboxamide]
10 | 203 nM | O=C1NC[C@@H](C(=O)NC(c2ccc(F)c(Cl)c2)c2cc(C(F)(F)F)[nH]n2)N1 (single isomer, unassigned) [Example 4A, (S)—N—((R or S)-(3-chloro-4-fluorophenyl)(5-(trifluoromethyl)-1H-pyrazol-3-yl)methyl)-2-oxoimidazolidine-4-carboxamide]
11 | 6.2 nM | O=C1NC[C@@H](C(=O)NC(c2ccc(F)c(Cl)c2)c2cc(C(F)(F)F)[nH]n2)N1 (single isomer, unassigned) [Example 4B, (S)—N—((R or S)-(3-chloro-4-fluorophenyl)(5-(trifluoromethyl)-1H-pyrazol-3-yl)methyl)-2-oxoimidazolidine-4-carboxamide]
12 | 1.6 nM | O=C1NC[C@@H](C(=O)NC(c2ccc(F)c(Cl)c2F)C2CCN(C3(C(F)(F)F)CC3)CC2)N1 (single isomer, unassigned) [Example 5A, (S)—N—((R or S)-(3-chloro-2,4-difluorophenyl)(1-(1-(trifluoromethyl)-cyclopropyl)piperidin-4-yl)methyl)-2-oxoimidazolidine-4-carboxamide]
13 | 74 nM | O=C1NC[C@@H](C(=O)NC(c2ccc(F)c(Cl)c2F)C2CCN(C3(C(F)(F)F)CC3)CC2)N1 (single isomer, unassigned) [Example 5B, (S)—N—((R or S)-(3-chloro-2,4-difluorophenyl)(1-(1-(trifluoromethyl)-cyclopropyl)piperidin-4-yl)methyl)-2-oxoimidazolidine-4-carboxamide]
14 | 1.1 nM | O=C1NC[C@@H](C(=O)NC(c2ccc(OC(F)(F)F)cc2)c2ccc(F)c(C(F)(F)F)n2)N1 (single isomer, unassigned) [Example 7A, (S)—N—((R or S)-(5-fluoro-6-(trifluoromethyl)pyridin-2-yl)(4-(trifluoromethoxy)phenyl)-methyl)-2-oxoimidazolidine-4-carboxamide]
15 | 44 nM | O=C1NC[C@@H](C(=O)NC(c2ccc(OC(F)(F)F)cc2)c2ccc(F)c(C(F)(F)F)n2)N1 (single isomer, unassigned) [Example 7B, (S)—N—((R or S)-(5-fluoro-6-(trifluoromethyl)pyridin-2-yl)(4-(trifluoromethoxy)phenyl)methyl)-2-oxo-imidazolidine-4-carboxamide]
16 | 1140 nM | O=C1NC[C@@H](C(=O)NC(c2ccc(F)c(Cl)c2F)[C@@H]2CC[C@@H](C(F)(F)F)CO2)N1 (single isomer, unassigned) [Example 8A, (S)—N—((R or S)-(3-chloro-2,4-difluorophenyl)((trans)-5-(trifluoromethyl)tetrahydro-2H-pyran-2-yl)methyl)-2-oxoimidazolidine-4-carboxamide]
17 | 8.4 nM | O=C1NC[C@@H](C(=O)NC(c2ccc(F)c(Cl)c2F)[C@@H]2CC[C@@H](C(F)(F)F)CO2)N1 (single isomer, unassigned) [Example 8B, (S)—N—((R or S)-(3-chloro-2,4-difluorophenyl)((trans)-5-(trifluoromethyl)tetrahydro-2H-pyran-2-yl)methyl)-2-oxoimidazolidine-4-carboxamide]
18 | 23 nM | O=C1NC[C@@H](C(=O)NC(c2ccc(F)c(Cl)c2F)[C@@H]2CC[C@@H](C(F)(F)F)CO2)N1 (single isomer, unassigned) [Example 8C, (S)—N—((R or S)-(3-chloro-2,4-difluorophenyl)((trans)-5-(trifluoromethyl)tetrahydro-2H-pyran-2-yl)methyl)-2-oxoimidazolidine-4-carboxamide]
19 | 2 nM | O=C1NC[C@@H](C(=O)NC(c2ccc(OC(F)(F)F)cc2)c2cccc(Cl)c2)N1 (single isomer, unassigned) [Example 9A, (4S)—N—((R or S)-(3-chlorophenyl)(4-(trifluoromethoxy)phenyl)methyl)-2-oxoimidazolidine-4-carboxamide]
20 | 2 nM | O=C1NC[C@@H](C(=O)NC(c2ccc(OC(F)(F)F)cc2)c2cccc(Cl)c2)N1 (single isomer, unassigned) [Example 9B, (4S)—N—((R or S)-(3-chlorophenyl)(4-(trifluoromethoxy)-phenyl)methyl)-2-oxoimidazolidine-4-carboxamide]
21 | 1070 nM | CN1CC(C(=O)NC(c2ccc(Cl)cc2)c2ccc(Cl)cc2)NC1=O (single isomer, unassigned) [Example 10A, (R or S)-N-[bis(4-chlorophenyl)methyl]-1-methyl-2-oxoimidazolidine-4-carboxamide]
22 | 504 nM | CN1CC(C(=O)NC(c2ccc(Cl)cc2)c2ccc(Cl)cc2)NC1=O (single isomer, unassigned) [Example 10B, (R or S)-N-[bis(4-chlorophenyl)methyl]-1-methyl-2-oxoimidazolidine-4-carboxamide]
23 | 50 nM | O=C1NC[C@@H](C(=O)NC(c2ccc(F)c(Cl)c2)c2ccc(F)c(OCC(F)(F)F)n2)N1 (single isomer, unassigned) [Example 11A, (4S)-N-{((R or S)-3-chloro-4-fluorophenyl)[5-fluoro-6-(2,2,2-trifluoro-ethoxy)pyridin-2-yl]methyl}-2-oxoimidazolidine-4-carboxamide]
24 | 3.9 nM | O=C1NC[C@@H](C(=O)NC(c2ccc(F)c(Cl)c2)c2ccc(F)c(OCC(F)(F)F)n2)N1 (single isomer, unassigned) [Example 11B, (4S)-N-{((R or S)-3-chloro-4-fluoro-phenyl)[5-fluoro-6-(2,2,2-trifluoro-ethoxy)pyridin-2-yl]methyl}-2-oxoimidazolidine-4-carboxamide]
